Assay results published in patent US20210230131A1, “POLYAMINO BIARYL COMPOUNDS AND THEIR USE” (INSERM (INSTITUT NATIONAL DE LA SANTÉ ET DE LA RECHERCHE …, priority 2018, published 2021).

Assays:
CTFα = assay: APP carboxy-terminal fragment αCTF by Western blot in SY5Y-APP695WT cells; type: cell-based, human; settings: CTFα increase compared to chloroquine ([CTF]compound/[CTF]CQ) at 3 μM; mean of at least three experiments
Description: (§1) Antibodies. Primary antibodies used in this study for western-blot analysis included a homemade rabbit antiserum against the last 17 amino acids of human APP protein sequence, named APP-Cter-C17 (1/5000 in TBS-M). Anti-β-actin (1/10 000 in TBS-M) was obtained from Sigma. Anti-LC3B (1/2000 in TBS-BSA) and anti-p62/SQSTM1 (1/2000 in TBS-M) antibodies were purchased from Cell Signaling Technology. Secondary antibodies (peroxidase-labeled goat anti-rabbit IgG, 1/5000 or peroxidase-labeled horse anti-mouse IgG, 1/50000 in TBS-T) were obtained from Vector Laboratories.
(§2) Cell culture and treatment. The human neuroblastoma cell line SY5Y-APP^695WT was maintained in Dulbecco's modified Eagle medium (DMEM, high glucose, pyruvate—GIBCO by Life Technologies) supplemented with 10% foetal bovine serum, 2 mM L-glutamine, 1 mM non-essential amino acids and penicillin/streptomycin (GIBCO by Life Technologies) at 37° C. in a 5% CO2 humidified incubator. SY5Y-APP^695WT cells were maintained in 75 cm^2 culture flasks (Falcon) with supplemented DMEM medium until they reached 80% of confluence 24 h before treatment.
(§3) For drug treatment, cells were plated at a rate of 5·10^5 cells per well into 12-well plates (Falcon) and cultured with 1 mL supplemented DMEM cell medium for 24 h before drug exposure. The following day, cell medium was replaced with fresh medium containing drugs diluted at the indicated concentrations. Cells were treated for 24 h. At the end of treatments, the cell medium was collected and kept at −80° C. until use for dosage. Then, cells were rinsed once with PBS and extracted in 100 μL of Laemmli buffer (10 mM Tris, 20% glycerol and 2% Sodium dodecyl sulfate) using a cell-scraper. The cell lysate was further sonicated (30 pulses of 0.5 s, 60 Hz) for 5 min. Total protein concentration was determined using the Pierce BCA Protein Assay Kit (Thermo scientific) according to the manufacturer's instructions. Samples were stored at −80° C. until analysis.
(§4) Western Blot Analysis. Cell protein lysates were prepared for western-blot analysis by diluting the sample with 1 volume of NuPAGE® lithium dodecyl sulfate (LDS) 2× sample buffer supplemented with 20% NuPAGE® sample reducing agents (Invitrogen). Samples were heat 10 min at 100° C. 10 μg of total proteins per well were loaded onto a precast 4-12% Criterion XT Bis-Tris polyacrylamide gel (Bio-Rad) and electrophoresis was achieved after applying a tension of 150 V during 90 min using a Criterion electrophoresis Cell with the NuPAGE® MOPS SDS running buffer (1×). Proteins were transferred to a nitrocellulose membrane of […] pore size (G&E Healthcare) using the Criterion blotting system and applying a tension of 100 V for 45 min. To resolve proteins of low molecular weights such as carboxy-terminal fragments of APP, 12% Criterion XT Bis-Tris polyacrylamide gels (Bio-Rad) were used and electrophoresis was performed during 70 min at 150 V in a NuPAGE® MES SDS running buffer (1×). Proteins were transferred to a nitrocellulose membrane of 0.2 μm pore size (G&E Healthcare) at 100 V for 40 min. Molecular weights calibration was achieved using molecular weight markers (Novex and Magic Marks, Life Technologies). Protein transfer and quality were determined by a reversible Ponceau Red coloration (0.2% Xylidine Ponceau Red and 3% Trichloroacetic acid). Membranes were then blocked in 25 mM Tris-HCl pH 8.0, 150 mM NaCl, 0.1% Tween-20 (v/v) (TBS-T) and 5% (w/v) of skimmed milk (TBS-M) or 5% (w/v) of bovine serum albumin (TBS-BSA) depending on the antibody during 1 h. Membrane was rinsed three-times 10 min in TBS-T before incubation with the primary antibody overnight at 4° C. Membrane was rinsed 3 times 10 min with TBS-T and then incubated with the secondary antibody for 45 min at room temperature (RT). […] Quantifications of protein expression levels were performed with ImageJ Software (NIH). […]

AICD = AICD by Western blot in SY5Y-APP695WT cells; type: cell-based, human; settings: AICD increase compared to chloroquine ([AICD]compound/[AICD]CQ) at 3 μM; mean of at least three experiments
Description: as §1, §2, §3, §4

Aβ1-40 peptide secretion = assay: Quantification of secreted Aβ1-40 by ELISA in SY5Y-APP695WT cells; type: cell-based; settings: Homo sapiens; concentration inhibiting 50% of Aβ1-40 peptide secretion in SY5Y cells; 24 h treatment; mean ± SD of at least two experiments in triplicate
Procedure: (§5) Cell culture and treatment. The human neuroblastoma cell line […] was maintained in Dulbecco's modified Eagle medium (DMEM, high glucose, pyruvate-GIBCO by Life Technologies) supplemented with 10% foetal bovine serum, 2 mM L-glutamine, 1 mM non-essential amino acids and penicillin/streptomycin (GIBCO by Life Technologies) at 37° C. in a 5% CO2 humidified incubator. […] cells were maintained in 75 cm^2 culture flasks (Falcon) with supplemented DMEM medium until they reached 80% of confluence 24 h before treatment. For compounds treatment, a 10 mM stock solution was diluted in freshly supplemented DMEM medium to obtain the precise final concentration of drug. Bafilomycin A1 (BafA1), the vacuolar […] type H+ ATPase inhibitor, was purchased from Merck Millipore and was used at a final dilution of 100 nM. For drug treatment, cells were plated at a rate of 5·10^5 cells per well into 12-well plates (Falcon) and cultured with 1 mL supplemented DMEM cell medium for 24 h before drug exposure. The following day, cell medium was replaced with fresh medium containing drugs diluted at the indicated concentrations. Cells were treated for 24 h. At the end of treatments, the cell medium was collected and kept at -80° C. until use for dosage. Then, cells were rinsed once with PBS and extracted in 100 μL of Laemmli buffer (10 mM Tris, 20% glycerol and 2% Sodium dodecyl sulfate) using a cell-scraper. The cell lysate was further sonicated (30 pulses of 0.5 s, 60 Hz) for 5 min. Total protein concentration was determined using the Pierce BCA Protein Assay Kit (Thermo scientific) according to the manufacturer's instructions. Samples were stored at -80° C. until analysis. Quantification of secreted Aβ1-40/1-42 and sAPPα/sAPPβ. Conditioned media of […] collected at the end of treatments were centrifuged at 1000 g for 5 min to eliminate cells debris. Aβ1-40 and Aβ1-42 peptide concentrations in […] were determined using amyloid-beta 40 and 42 Human ELISA kits (Invitrogen) according to the manufacturer's instructions after 1:10 and 1:2 dilutions of supernatants in ELISA buffer, respectively. sAPPα and sAPPβ concentrations in ng/mL were determined using the sAPPα/sAPPβ kit (Meso Scale Diagnostics, MSD®) according to the manufacturer's instructions. Compounds of the invention (compounds 24-37, 41, 44 and 51-58) were evaluated for their ability to modulate APP processing on SY5Y human neuroblastoma cell line stably expressing the neuronal isoform of human wild-type APP695 (SYSY-APPwt). Aβ levels (Aβ1-40 and Aβ1-42) after treatment with reference and tested compounds were measured by ELISA (Table 2). […] APP carboxy-terminal fragments (αCTFs and AICD) were measured by Western blot and quantified. The effect of reference and tested compounds on αCTFs and AICD are expressed as the intensity of corresponding western-blot bands resulting from the secretase cleavages.

Aβ1-42 peptide secretion = assay: Quantification of secreted Aβ1-42 by ELISA in SY5Y-APP695WT cells; type: cell-based; settings: Homo sapiens; concentration inhibiting 50% of Aβ1-42 peptide secretion in SY5Y cells; 24 h treatment; mean ± SD of at least two experiments in triplicate
Procedure: as §5

CCN(CC)CCCC(C)Nc1ccnc2cc(Cl)ccc12 (stereo not shown) [CQ, chloroquine, reference compound]
CTFα vs CQ (3 μM) (CTFα): 1 | AICD vs CQ (3 μM) (AICD): 1

c1cc(-c2ccc(NCCCN3CCCCC3)c(OCCN3CCCCC3)c2)ccc1CN1CCCCC1 [Compound 24, 2-[2-(Piperidin-1-yl)ethoxy]-N-[3-(piperidin-1-yl)propyl]-4-[4-(piperidin-1-ylmethyl)phenyl]aniline]
IC50 (Aβ1-40 peptide secretion): 2100 ± 600 nM | IC50 (Aβ1-42 peptide secretion): 3300 ± 2100 nM | CTFα vs CQ (3 μM) (CTFα): 2.6 | AICD vs CQ (3 μM) (AICD): 2.5

CN(C)Cc1ccc(-c2ccc(NCCCN3CCCCC3)c(OCCN3CCCCC3)c2)cc1 [Compound 25, 4-(4-[(Dimethylamino)methyl]phenyl)-2-[2-(piperidin-1-yl)ethoxy]-N-[3-(piperidin-1-yl)propyl]aniline]
IC50 (Aβ1-40 peptide secretion): 1500 ± 100 nM | IC50 (Aβ1-42 peptide secretion): 1700 ± 400 nM | CTFα vs CQ (3 μM) (CTFα): 2.1 | AICD vs CQ (3 μM) (AICD): 2.5

c1cc(CN2CCCCC2)cc(-c2ccc(NCCCN3CCCCC3)c(OCCN3CCCCC3)c2)c1 [Compound 26, 2-[2-(1-piperidyl)ethoxy]-4-[3-(1-piperidylmethyl)phenyl]-N-[3-(1-piperidyl)propyl]aniline]
IC50 (Aβ1-40 peptide secretion): 4300 ± 700 nM | IC50 (Aβ1-42 peptide secretion): 4800 ± 600 nM | CTFα vs CQ (3 μM) (CTFα): 3.3 | AICD vs CQ (3 μM) (AICD): 2.6

c1ccc(-c2ccc(NCCCN3CCCCC3)c(OCCN3CCCCC3)c2)c(CN2CCCCC2)c1 [Compound 27, 2-[2-(Piperidin-1-yl)ethoxy]-N-[3-(piperidin-1-yl)propyl]-4-[2-(piperidin-1-ylmethyl)phenyl]aniline]
IC50 (Aβ1-40 peptide secretion): 2600 ± 100 nM | IC50 (Aβ1-42 peptide secretion): 4100 ± 1300 nM | CTFα vs CQ (3 μM) (CTFα): 4.3 | AICD vs CQ (3 μM) (AICD): 2.7

c1ccc(-c2ccc(NCCCN3CCCCC3)c(OCCN3CCCCC3)c2)c(CN2CCOCC2)c1 [Compound 28, 4-[2-(Morpholin-4-ylmethyl)phenyl]-2-[2-(piperidin-1-yl)ethoxy]-N-[3-(piperidin-1-yl)propyl]aniline]
IC50 (Aβ1-40 peptide secretion): 2800 ± 1200 nM | IC50 (Aβ1-42 peptide secretion): 4200 ± 1500 nM | CTFα vs CQ (3 μM) (CTFα): 3.1 | AICD vs CQ (3 μM) (AICD): 1.7

CN1CCN(Cc2ccccc2-c2ccc(NCCCN3CCCCC3)c(OCCN3CCCCC3)c2)CC1 [Compound 29, 4-(2-[(4-Methylpiperazin-1-yl)methyl]phenyl)-2-[2-(piperidin-1-yl)ethoxy]-N-[3-(piperidin-1-yl)propyl]aniline]
IC50 (Aβ1-40 peptide secretion): 2600 ± 200 nM | IC50 (Aβ1-42 peptide secretion): 2700 ± 800 nM | CTFα vs CQ (3 μM) (CTFα): 5.1 | AICD vs CQ (3 μM) (AICD): 3.7

CN(C)Cc1ccccc1-c1ccc(NCCCN2CCCCC2)c(OCCCN2CCCCC2)c1 [Compound 32, 2′-((Dimethylamino)methyl)-3-(3-(piperidin-1-yl)propoxy)-N-(3-(piperidin-1-yl)propyl)-[1,1′-biphenyl]-4-amine]
IC50 (Aβ1-40 peptide secretion): 2100 ± 300 nM | IC50 (Aβ1-42 peptide secretion): 2000 ± 100 nM | CTFα vs CQ (3 μM) (CTFα): 4.5 | AICD vs CQ (3 μM) (AICD): 5.1

CN(C)Cc1ccccc1-c1ccc(NCCN2CCCCC2)c(OCCN2CCCCC2)c1 [Compound 33, 2′-((Dimethylamino)methyl)-3-(2-(piperidin-1-yl)ethoxy)-N-(2-(piperidin-1-yl)ethyl)-[1,1′-biphenyl]-4-amine]
IC50 (Aβ1-40 peptide secretion): 1400 ± 500 nM | IC50 (Aβ1-42 peptide secretion): 1200 ± 600 nM | CTFα vs CQ (3 μM) (CTFα): 5.0 | AICD vs CQ (3 μM) (AICD): 4.8

CN(C)Cc1ccccc1-c1ccc(NCCN2CCCCC2)c(OCCCN2CCCCC2)c1 [Compound 34, 2′-((Dimethylamino)methyl)-N-(2-(piperidin-1-yl)ethyl)-3-(3-(piperidin-1-yl)propoxy)-[1,1′-biphenyl]-4-amine]
IC50 (Aβ1-40 peptide secretion): 2000 ± 200 nM | IC50 (Aβ1-42 peptide secretion): 1800 ± 700 nM | CTFα vs CQ (3 μM) (CTFα): 4.5 | AICD vs CQ (3 μM) (AICD): 3.4

CN1CCN(Cc2ccn(-c3ccc(NCCCN4CCCCC4)c(OCCN4CCCCC4)c3)c2)CC1 [Compound 54, 4-(3-[(4-Methylpiperazin-1-yl)methyl]-1H-pyrrol-1-yl)-2-[2-(piperidin-1-yl)ethoxy]-N-[3(piperidin-1-yl)propyl]aniline]
IC50 (Aβ1-40 peptide secretion): 8300 ± 4000 nM | IC50 (Aβ1-42 peptide secretion): 12100 ± 7800 nM
